# Starred links: 1 amine or outer side, 2 acyl side, 3 side chain; linkers in the order of their positions; H or OH if unused. Positions of bridges follow the written chain, without caps; N, C: chain ends. Non-standard residues stand in square brackets, D forms with d. Residues, ends and D or L forms follow the SMILES beside them. *: point of attachment. hPhe(3-Cl-4-CF3) = N[C@@H](CCc1ccc(C(F)(F)F)c(Cl)c1)C(=O)O; hPhe(3-F,4-CF3) = N[C@@H](CCc1ccc(C(F)(F)F)c(F)c1)C(=O)O; X38 = CN([C@@H](Cc1cccc(OC(F)(F)F)c1)C(=O)[*:2])[*:1]; NMePhe(3-CF3) = CN[C@@H](Cc1cccc(C(F)(F)F)c1)C(=O)O; NMePhe(4-CF3) = CN[C@@H](Cc1ccc(C(F)(F)F)cc1)C(=O)O; NMePhe(3-Br) = CN[C@@H](Cc1cccc(Br)c1)C(=O)O; NMePhe(3-Me) = CN[C@@H](Cc1cccc(C)c1)C(=O)O; NMePhe(2-Cl) = CN[C@@H](Cc1ccccc1Cl)C(=O)O; NMePhe(3-F) = CN[C@@H](Cc1cccc(F)c1)C(=O)O; NMeAla(cPent) = CN[C@@H](CC1CCCC1)C(=O)O; NMePhe(2-F) = CN[C@@H](Cc1ccccc1F)C(=O)O; NMeGly(cPent) = CN[C@H](C(=O)O)C1CCCC1; NMeCha = CN[C@@H](CC1CCCCC1)C(=O)O; NMeGly(cPr) = CN[C@H](C(=O)O)C1CC1; NMehLeu = CN[C@@H](CCC(C)C)C(=O)O; NMeChg = CN[C@H](C(=O)O)C1CCCCC1; NMeD = CN[C@@H](CC(=O)O)C(=O)O; NMeL = CN[C@@H](CC(C)C)C(=O)O; NMeV = CN[C@H](C(=O)O)C(C)C; d(β3hA) = C[C@@H](N)CC(=O)O; NMeS = CN[C@@H](CO)C(=O)O; NMeA = CN[C@@H](C)C(=O)O; Piperidide = C1CCN(*)CC1; dNMeA = CN[C@H](C)C(=O)O; Ac5c = NC1(C(=O)O)CCCC1; Aze = O=C(O)[C@@H]1CCN1; CH2CMe2OH = CC(C)(O)C*; Aib = CC(C)(N)C(=O)O; Isopentyl = CC(C)CC*; Sar = CNCC(=O)O
# Molecular target: T1, Kras and SOS1 (biotin-tagged human Kras loaded with GDP, His-tagged human SOS1) (Homo sapiens, UniProt P01116, G12D)
# T1 construct: made in house; host or cells: E. coli (stated for Kras only)
# T1 sequence (P01116 1-188 isoform P01116-2 G12D): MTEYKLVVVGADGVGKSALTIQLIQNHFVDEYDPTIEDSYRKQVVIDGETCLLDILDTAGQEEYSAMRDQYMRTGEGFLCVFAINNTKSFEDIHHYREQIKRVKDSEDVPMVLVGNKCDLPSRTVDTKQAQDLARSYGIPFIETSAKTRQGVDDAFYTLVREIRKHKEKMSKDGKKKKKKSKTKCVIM
# Assay: Protein-protein interaction inhibition between Kras and SOS1 (KrasGl2D-SOS PPI) using AlphaScreen
# Format: binding
# Settings: AlphaScreen; biotin-tagged human Kras loaded with GDP, His-tagged human SOS1; read-out: KRAS G12D-SOS PPI IC50
# Outline: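 Kras was produced in E. coli, purified, then loaded with GDP. It was paired via streptavidin acceptor beads with His-SOS1 held on nickel donor beads, and proximity signal at 520-620 nm was read after 680 nm illumination.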
row,Structure (SMILES),IC50 [nM]
1,CC[C@H](C)[C@@H]1NC(=O)[C@H](CC(C)C)N(C)C(=O)C[C@@H](C)NC(=O)[C@H](C2CCCC2)N(C)C(=O)C2(CCCC2)NC(=O)[C@@H]2CCCN2C(=O)[C@H](CCc2ccc(C(F)(F)F)c(Cl)c2)NC(=O)[C@@H](C)N(C)C(=O)[C@H](Cc2ccc(C(F)(F)F)cc2)N(C)C(=O)CN(C)C(=O)CN(C)C1=O [Compound 1542] (cyclo([Ac5c][NMeGly(cPent)][d(β3hA)][NMeL]I[Sar][Sar][NMePhe(4-CF3)][dNMeA][hPhe(3-Cl-4-CF3)]P)),170
2,CC[C@H](C)[C@@H]1NC(=O)[C@H](C)N(C)C(=O)C[C@@H](C)NC(=O)[C@H](C2CCCC2)N(C)C(=O)C2(CCCC2)NC(=O)[C@@H]2CCCN2C(=O)[C@H](CCc2ccc(C(F)(F)F)c(Cl)c2)NC(=O)[C@H]2CCCN2C(=O)[C@H](CC2CCCCC2)N(C)C(=O)CN(C)C(=O)CN(C)C1=O [Compound 1543] (cyclo([Ac5c][NMeGly(cPent)][d(β3hA)][NMeA]I[Sar][Sar][NMeCha][dP][hPhe(3-Cl-4-CF3)]P)),160
3,"CC[C@H](C)[C@@H]1NC(=O)[C@H](CC(C)C)N(C)C(=O)C[C@@H](C)NC(=O)[C@H](CC(C)C)N(C)C(=O)C2(CCCC2)NC(=O)[C@@H]2CCN2C(=O)[C@H](CCc2ccc(C(F)(F)F)c(F)c2)NC(=O)CN(C)C(=O)[C@H](CC2CCCCC2)N(C)C(=O)CN(C)C(=O)CN(C)C1=O [Compound 1545] (cyclo([Ac5c][NMeL][d(β3hA)][NMeL]I[Sar][Sar][NMeCha][Sar][hPhe(3-F,4-CF3)][Aze]))",42
4,CC[C@H](C)[C@@H]1NC(=O)[C@H](CC(C)C)N(C)C(=O)C[C@@H](C)NC(=O)[C@H](CC(C)C)N(C)C(=O)C(C)(C)NC(=O)[C@H](COCC(C)(C)O)N(C)C(=O)[C@H](CCc2ccc(C(F)(F)F)c(Cl)c2)NC(=O)CN(C)C(=O)[C@H](COCCC(C)C)N(C)C(=O)CN(C)C(=O)CN(C)C1=O [Compound 1546] (cyclo([Aib][NMeL][d(β3hA)][NMeL]I[Sar][Sar][NMeS](Isopentyl)[Sar][hPhe(3-Cl-4-CF3)][NMeS](CH2CMe2OH))),40
5,CC[C@H](C)[C@@H]1NC(=O)[C@H](CC(C)C)N(C)C(=O)C[C@@H](C)NC(=O)[C@H](C(C)C)N(C)C(=O)C2(CCCC2)NC(=O)[C@@H]2CCCN2C(=O)[C@H](CCc2ccc(C(F)(F)F)c(Cl)c2)NC(=O)CN(C)C(=O)[C@H](Cc2cccc(C)c2)N(C)C(=O)CN(C)C(=O)CN(C)C1=O [Compound 1547] (cyclo([Ac5c][NMeV][d(β3hA)][NMeL]I[Sar][Sar][NMePhe(3-Me)][Sar][hPhe(3-Cl-4-CF3)]P)),22
6,CC[C@H](C)[C@@H]1NC(=O)[C@H](CC(C)C)N(C)C(=O)C[C@@H](C(=O)N2CCCCC2)N(C)C(=O)[C@H](C(C)C)N(C)C(=O)C2(CCCC2)NC(=O)[C@@H]2CCCN2C(=O)[C@H](CCc2ccc(C(F)(F)F)c(Cl)c2)NC(=O)CN(C)C(=O)[C@H](CC2CCCCC2)N(C)C(=O)[C@@H]2CCN2C(=O)[C@H](CC2CCCC2)N(C)C1=O [Compound 1552] ([NMeL]I[NMeAla(cPent)][Aze][NMeCha][Sar][hPhe(3-Cl-4-CF3)]P[Ac5c][NMeV][NMeD]-Piperidide; lactam N-11),61
7,CC[C@H](C)[C@@H]1NC(=O)[C@H](CC(C)C)N(C)C(=O)C[C@@H](C(=O)N2CCCCC2)N(C)C(=O)[C@H](C(C)C)N(C)C(=O)C2(CCCC2)NC(=O)[C@@H]2CCCN2C(=O)[C@H](CCc2ccc(C(F)(F)F)c(Cl)c2)NC(=O)CN(C)C(=O)[C@H](CC2CCCCC2)N(C)C(=O)[C@@H]2CCN2C(=O)[C@H](C2CC2)N(C)C1=O [Compound 1553] ([NMeL]I[NMeGly(cPr)][Aze][NMeCha][Sar][hPhe(3-Cl-4-CF3)]P[Ac5c][NMeV][NMeD]-Piperidide; lactam N-11),12
8,CC[C@H](C)[C@@H]1NC(=O)[C@H](CC(C)C)N(C)C(=O)C[C@@H](C)NC(=O)[C@H](C(C)C)N(C)C(=O)C2(CCCC2)NC(=O)[C@@H]2CCCN2C(=O)[C@H](CCc2ccc(C(F)(F)F)c(Cl)c2)NC(=O)CN(C)C(=O)[C@H](Cc2cccc(F)c2)N(C)C(=O)CN(C)C(=O)CN(C)C1=O [Compound 1556] (cyclo([Ac5c][NMeV][d(β3hA)][NMeL]I[Sar][Sar][NMePhe(3-F)][Sar][hPhe(3-Cl-4-CF3)]P)),17
9,CC[C@H](C)[C@@H]1NC(=O)[C@H](CC(C)C)N(C)C(=O)C[C@@H](C)NC(=O)[C@H](C(C)C)N(C)C(=O)C2(CCCC2)NC(=O)[C@@H]2CCCN2C(=O)[C@H](CCc2ccc(C(F)(F)F)c(Cl)c2)NC(=O)CN(C)C(=O)[C@H](Cc2cccc(OC(F)(F)F)c2)N(C)C(=O)CN(C)C(=O)CN(C)C1=O [Compound 1573] (cyclo([Ac5c][NMeV][d(β3hA)][NMeL]I[Sar][Sar][X38][Sar][hPhe(3-Cl-4-CF3)]P)),57
10,CC[C@H](C)[C@@H]1NC(=O)[C@H](CC(C)C)N(C)C(=O)C[C@@H](C)NC(=O)[C@H](C(C)C)N(C)C(=O)C2(CCCC2)NC(=O)[C@@H]2CCCN2C(=O)[C@H](CCc2ccc(C(F)(F)F)c(Cl)c2)NC(=O)CN(C)C(=O)[C@H](Cc2cccc(C(F)(F)F)c2)N(C)C(=O)CN(C)C(=O)CN(C)C1=O [Compound 1575] (cyclo([Ac5c][NMeV][d(β3hA)][NMeL]I[Sar][Sar][NMePhe(3-CF3)][Sar][hPhe(3-Cl-4-CF3)]P)),45
11,CC[C@H](C)[C@@H]1NC(=O)[C@H](CC(C)C)N(C)C(=O)C[C@@H](C(=O)N2CCCCC2)N(C)C(=O)[C@H](C(C)C)N(C)C(=O)C2(CCCC2)NC(=O)[C@@H]2CCCN2C(=O)[C@H](CCc2ccc(C(F)(F)F)c(Cl)c2)NC(=O)CN(C)C(=O)[C@H](CC2CCCCC2)N(C)C(=O)[C@@H]2CCN2C(=O)[C@H](CCC(C)C)N(C)C1=O [Compound 1577] ([NMeL]I[NMehLeu][Aze][NMeCha][Sar][hPhe(3-Cl-4-CF3)]P[Ac5c][NMeV][NMeD]-Piperidide; lactam N-11),50
12,CC[C@H](C)[C@@H]1NC(=O)[C@H](C)N(C)C(=O)C[C@@H](C(=O)N2CCCCC2)N(C)C(=O)[C@H](C(C)C)N(C)C(=O)C2(CCCC2)NC(=O)[C@@H]2CCCN2C(=O)[C@H](CCc2ccc(C(F)(F)F)c(Cl)c2)NC(=O)CN(C)C(=O)[C@H](CC2CCCCC2)N(C)C(=O)[C@@H]2CCN2C(=O)[C@H](CC2CCCCC2)N(C)C1=O [Compound 1580] ([NMeA]I[NMeCha][Aze][NMeCha][Sar][hPhe(3-Cl-4-CF3)]P[Ac5c][NMeV][NMeD]-Piperidide; lactam N-11),11
13,CC[C@H](C)[C@@H]1NC(=O)[C@H](CC(C)C)N(C)C(=O)C[C@@H](C)NC(=O)[C@H](C(C)C)N(C)C(=O)C2(CCCC2)NC(=O)[C@@H]2CCCN2C(=O)[C@H](CCc2ccc(C(F)(F)F)c(Cl)c2)NC(=O)CN(C)C(=O)[C@H](CC2CCCCC2)N(C)C(=O)[C@@H]2CCN2C(=O)[C@H](CC2CCCCC2)N(C)C1=O [Compound 1581] (cyclo([Ac5c][NMeV][d(β3hA)][NMeL]I[NMeCha][Aze][NMeCha][Sar][hPhe(3-Cl-4-CF3)]P)),230
14,CC[C@H](C)[C@@H]1NC(=O)[C@H](CC(C)C)N(C)C(=O)C[C@@H](C)NC(=O)[C@H](C(C)C)N(C)C(=O)C2(CCCC2)NC(=O)[C@@H]2CCCN2C(=O)[C@H](CCc2ccc(C(F)(F)F)c(Cl)c2)NC(=O)CN(C)C(=O)[C@H](COc2ccccc2Cl)N(C)C(=O)CN(C)C(=O)CN(C)C1=O [Compound 1582],35
15,CC[C@H](C)[C@@H]1NC(=O)[C@H](CC(C)C)N(C)C(=O)C[C@@H](C)NC(=O)[C@H](C(C)C)N(C)C(=O)C2(CCCC2)NC(=O)[C@@H]2CCCN2C(=O)[C@H](CCc2ccc(C(F)(F)F)c(Cl)c2)NC(=O)CN(C)C(=O)[C@H](Cc2ccccc2F)N(C)C(=O)CN(C)C(=O)CN(C)C1=O [Compound 1585] (cyclo([Ac5c][NMeV][d(β3hA)][NMeL]I[Sar][Sar][NMePhe(2-F)][Sar][hPhe(3-Cl-4-CF3)]P)),43
16,CC[C@H](C)[C@@H]1NC(=O)[C@H](CC(C)C)N(C)C(=O)C[C@@H](C)NC(=O)[C@H](C(C)C)N(C)C(=O)C2(CCCC2)NC(=O)[C@@H]2CCCN2C(=O)[C@H](CCc2ccc(C(F)(F)F)c(Cl)c2)NC(=O)CN(C)C(=O)[C@H](Cc2cccc(Br)c2)N(C)C(=O)CN(C)C(=O)CN(C)C1=O [Compound 1587] (cyclo([Ac5c][NMeV][d(β3hA)][NMeL]I[Sar][Sar][NMePhe(3-Br)][Sar][hPhe(3-Cl-4-CF3)]P)),31
17,CC[C@H](C)[C@@H]1NC(=O)[C@H](CC(C)C)N(C)C(=O)C[C@@H](C)NC(=O)[C@H](C(C)C)N(C)C(=O)C2(CCCC2)NC(=O)[C@@H]2CCCN2C(=O)[C@H](CCc2ccc(C(F)(F)F)c(Cl)c2)NC(=O)CN(C)C(=O)[C@H](Cc2ccccc2Cl)N(C)C(=O)CN(C)C(=O)CN(C)C1=O [Compound 1591] (cyclo([Ac5c][NMeV][d(β3hA)][NMeL]I[Sar][Sar][NMePhe(2-Cl)][Sar][hPhe(3-Cl-4-CF3)]P)),97
18,CC[C@H](C)[C@@H]1NC(=O)[C@H](C)N(C)C(=O)C[C@@H](C(=O)N2CCCCC2)N(C)C(=O)[C@H](C(C)C)N(C)C(=O)C2(CCCC2)NC(=O)[C@@H]2CCCN2C(=O)[C@H](CCc2ccc(C(F)(F)F)c(Cl)c2)NC(=O)CN(C)C(=O)[C@H](CC2CCCCC2)N(C)C(=O)[C@@H]2CCN2C(=O)[C@H](CCC(C)C)N(C)C1=O [Compound 1595] ([NMeA]I[NMehLeu][Aze][NMeCha][Sar][hPhe(3-Cl-4-CF3)]P[Ac5c][NMeV][NMeD]-Piperidide; lactam N-11),15
19,CC[C@H](C)[C@@H]1NC(=O)[C@H](CC(C)C)N(C)C(=O)C[C@@H](C(=O)N2CCCCC2)N(C)C(=O)[C@H](C(C)C)N(C)C(=O)C2(CCCC2)NC(=O)[C@@H]2CCCN2C(=O)[C@H](CCc2ccc(C(F)(F)F)c(Cl)c2)NC(=O)CN(C)C(=O)[C@H](CC2CCCCC2)N(C)C(=O)[C@@H]2CCN2C(=O)[C@H](C2CCCCC2)N(C)C1=O [Compound 1600] ([NMeL]I[NMeChg][Aze][NMeCha][Sar][hPhe(3-Cl-4-CF3)]P[Ac5c][NMeV][NMeD]-Piperidide; lactam N-11),310

# Reference: patent US12371454B2, “Cyclic peptide compound having Kras inhibitory action” (priority 2019, dated 2025)
